Test results from ChEMBL document CHEMBL4431382, “DNA-binding studies of the natural β-carboline eudistomin U” (Bioorg Med Chem Lett, 2016).
The source made the active and inactive calls. The calls are words filed in the database; no cut-off is given here.

Key:
Calf thymus DNA [1] = assay: Binding affinity to calf thymus duplex DNA assessed as change in melting temperature at 2.5 uM in pH 7 phosphate buffer by UV-vis spectrophotometric analysis; type: nucleic-acid assay; details: Bos taurus
Calf thymus DNA [2] = assay: Binding affinity to calf thymus duplex DNA assessed as induction of ellipticity at 2.5 to 63 uM in pH 7 phosphate buffer by circular dichroism method; type: nucleic-acid assay; details: Bos taurus
Calf thymus DNA [3] = assay: Binding affinity to calf thymus duplex DNA assessed as melting temperature at 0.5 mM by differential scanning calorimetry (reference value: 51 degC); type: nucleic-acid assay; details: Bos taurus
Calf thymus DNA [4] = assay: Binding affinity to calf thymus duplex DNA assessed as induction of hyperchromic shift at 257 nanometer at 75 uM in pH 7 phosphate buffer by UV-vis spectrophotometric analysis; type: nucleic-acid assay; details: Bos taurus
Calf thymus DNA [5] = assay: Binding affinity to calf thymus duplex DNA assessed as induction of red shift in soret peak at 75 uM in pH 7 phosphate buffer by UV-vis spectrophotometric analysis; type: nucleic-acid assay; details: Bos taurus
Calf thymus DNA [6] = assay: Binding affinity to calf thymus duplex DNA assessed as induction of ellipticity at 350 nanometer at 25 to 200 uM in pH 7 phosphate buffer by circular dichroism method; type: nucleic-acid assay; details: Bos taurus
Calf thymus DNA [7] = assay: Binding affinity to calf thymus duplex DNA assessed as induction of hyperchromic shift at 257 nanometer at 50 uM in pH 7 phosphate buffer by UV-vis spectrophotometric analysis; type: nucleic-acid assay; details: Bos taurus
Calf thymus DNA [8] = assay: Binding affinity to calf thymus duplex DNA assessed as red shift in soret peak at 50 uM in pH 7 phosphate buffer by UV-vis spectrophotometric analysis; type: nucleic-acid assay; details: Bos taurus
Calf thymus DNA [9] = assay: Binding affinity to calf thymus duplex DNA assessed as change in melting temperature at 50 uM in pH 7 phosphate buffer by UV-vis spectrophotometric analysis; type: nucleic-acid assay; details: Bos taurus
Calf thymus DNA [10] = assay: Binding affinity to calf thymus duplex DNA assessed as induction of hyperchromicity at 25 to 200 uM in pH 7 phosphate buffer by circular dichroism method; type: nucleic-acid assay; details: Bos taurus
Calf thymus DNA [11] = assay: Binding affinity to calf thymus duplex DNA assessed as increase in melting temperature by differential scanning calorimetry; type: nucleic-acid assay; details: Bos taurus
Calf thymus DNA [12] = assay: Binding affinity to calf thymus duplex DNA assessed as induction of ellipticity at 25 to 200 uM in pH 8.9 phosphate buffer by circular dichroism method; type: nucleic-acid assay; details: Bos taurus
Calf thymus DNA [13] = assay: Binding affinity to calf thymus duplex DNA assessed as induction of red shift in soret peak at 50 uM in pH 8.9 phosphate buffer by UV-vis spectrophotometric analysis; type: nucleic-acid assay; details: Bos taurus
Calf thymus DNA [14] = assay: Binding affinity to calf thymus duplex DNA assessed as melting temperature at 1 mM by differential scanning calorimetry (reference value: 51 degC); type: nucleic-acid assay; details: Bos taurus
Calf thymus DNA [15] = assay: Binding affinity to calf thymus duplex DNA assessed as induction of red shift in soret peak at 50 uM in pH 5.4 phosphate buffer by UV-vis spectrophotometric analysis; type: nucleic-acid assay; details: Bos taurus
Calf thymus DNA [16] = assay: Binding affinity to calf thymus duplex DNA assessed as induction of ellipticity at 25 to 200 uM in pH 5.4 phosphate buffer by circular dichroism method; type: nucleic-acid assay; details: Bos taurus
Bos taurus [17] = organism: Bos taurus; assay: Binding affinity to calf thymus GC-rich duplex DNA assessed as induction of hyperchromicity at 25 to 200 uM in pH 7 phosphate buffer by circular dichroism method
Calf thymus DNA [18] = assay: Binding affinity to calf thymus duplex DNA assessed as induction of hyperchromicity at 280 nanometer at 25 to 200 uM in pH 7 phosphate buffer by circular dichroism method; type: nucleic-acid assay; details: Bos taurus
Calf thymus DNA [19] = assay: Binding affinity to calf thymus duplex DNA assessed as induction of hyperchromic shift at 257 nanometer at 50 uM in pH 5.4 phosphate buffer by UV-vis spectrophotometric analysis; type: nucleic-acid assay; details: Bos taurus
Bos taurus [20] = organism: Bos taurus; assay: Binding affinity to calf thymus GC-rich duplex DNA assessed as induction of ellipticity at 25 to 200 uM in pH 7 phosphate buffer by circular dichroism method
Calf thymus DNA [21] = assay: Binding affinity to calf thymus duplex DNA assessed as induction of hyperchromic shift at 257 nanometer at 50 uM in pH 8.9 phosphate buffer by UV-vis spectrophotometric analysis; type: nucleic-acid assay; details: Bos taurus
Calf thymus DNA [22] = assay: Binding affinity to calf thymus duplex DNA assessed as induction of red shift at 280 nanometer at 25 to 200 uM in pH 7 phosphate buffer by circular dichroism method; type: nucleic-acid assay; details: Bos taurus
Bos taurus [23] = organism: Bos taurus; assay: Binding affinity to calf thymus AT-rich duplex DNA assessed as induction of hyperchromicity at 25 to 200 uM in pH 7 phosphate buffer by circular dichroism method
Calf thymus DNA [24] = assay: Binding affinity to calf thymus duplex DNA assessed as melting temperature at 5 mM by differential scanning calorimetry (reference value: 51 degC); type: nucleic-acid assay; details: Bos taurus
Calf thymus DNA [25] = assay: Binding affinity to calf thymus duplex DNA assessed as induction of ellipticity at 25 to 200 uM in pH 7 phosphate buffer in presence of 0.1 M NaCl by circular dichroism method; type: nucleic-acid assay; details: Bos taurus
Calf thymus DNA [26] = assay: Binding affinity to calf thymus duplex DNA assessed as induction of ellipticity at 349 nanometer at 25 to 200 uM in pH 7 phosphate buffer by circular dichroism method; type: nucleic-acid assay; details: Bos taurus
Bos taurus [27] = organism: Bos taurus; assay: Binding affinity to calf thymus AT-rich duplex DNA assessed as induction of ellipticity at 25 to 200 uM in pH 7 phosphate buffer by circular dichroism method

CC[n+]1c(-c2ccccc2)c2cc(N)ccc2c2ccc(N)cc21
ΔTm (Calf thymus DNA [1]): 8.9 °C
Activity (Calf thymus DNA [2]): Active
Tm (Calf thymus DNA [3]): 75 °C

c1ccc2c(c1)[nH]c1cnccc12
Activity (Calf thymus DNA [4]): Active
Activity (Calf thymus DNA [5]): Active
Activity (Calf thymus DNA [6]): inactive

Cc1nccc2c1[nH]c1ccccc12
Activity (Calf thymus DNA [7]): Active
Activity (Calf thymus DNA [6]): inactive
Activity (Calf thymus DNA [8]): Active
ΔTm (Calf thymus DNA [9]): 4 °C
Tm (Calf thymus DNA [3]): 65 °C

C[n+]1ccc2c([nH]c3ccccc32)c1-c1c[nH]c2ccccc12
Activity (Calf thymus DNA [6]): inactive
Activity (Calf thymus DNA [10]): inactive

c1ccc2c(-c3nccc4c3[nH]c3ccccc34)c[nH]c2c1
Activity (Calf thymus DNA [11]): Dose-dependent effect
Activity (Calf thymus DNA [12]): inactive
Activity (Calf thymus DNA [13]): Active
Tm (Calf thymus DNA [14]): 56 to 67 °C
Activity (Calf thymus DNA [15]): Active
Activity (Calf thymus DNA [7]): Active
Activity (Calf thymus DNA [16]): Active
Activity (Bos taurus [17]): inactive
Activity (Calf thymus DNA [18]): Active
Activity (Calf thymus DNA [19]): Active
Activity (Bos taurus [20]): inactive
Activity (Calf thymus DNA [21]): Active
Activity (Calf thymus DNA [8]): 20 nm
Activity (Calf thymus DNA [22]): Active
Activity (Bos taurus [23]): inactive
Tm (Calf thymus DNA [24]): 67 °C
Activity (Calf thymus DNA [25]): Active
Activity (Calf thymus DNA [26]): Active
Activity (Bos taurus [27]): inactive
ΔTm (Calf thymus DNA [9]): 2.3 °C
